What is called CL/F is the apparent clearance, not corrected for the fraction that reaches the circulation. One may read the Tmax as the time at which the peak concentration occurs. The term half-life denotes the time in which the quantity being followed falls by half. A higher half-life goes with slow decline. The term GI50 denotes the concentration at which growth is held to half of that of the control. What is called IC50 is the concentration that inhibits the measured activity by half.

The source of these data is ChEMBL document CHEMBL4765237, “Structural optimization and structure-activity relationship studies of N-phenyl-7,8-dihydro-6H-pyrimido[5,4-b][1,4]oxazin-4-amine derivatives as a new class of inhibitors of RET and its drug resistance mutants” (Eur J Med Chem, 2018).

Data set [1] can be described thus: Clearance in Sprague-Dawley rat at 10 mg/kg, po measured upto 24 hrs by LC-MS/MS analysis. The data set is classed as ADME, organism-based. The following applies: in vivo.
Data set [2] can be described thus: Tmax in Sprague-Dawley rat at 10 mg/kg, po measured upto 24 hrs by LC-MS/MS analysis. The data set is classed as ADME, organism-based. The following applies: in vivo.
A short description of data set [3]: Half life in Sprague-Dawley rat at 10 mg/kg, po measured upto 24 hrs by LC-MS/MS analysis. The data set is classed as ADME, organism-based. The following applies: in vivo.
Data set [4] in a line: Toxicity in NOD-SCID mouse xenografted with […] cells harboring RET C634Y mutant assessed as reduction in body weight at 10 to 30 mg/kg, po administered for 18 days and measured on day 18. The data set is classed as organism-based. The following applies: in vivo, 432 h, dose 10-30 mg/kg, time 18 day. (In xenograft studies the graft and the host belong to different species.)

Data set [5] deals with NCI-H1975. Description: Growth inhibition of human NCI-H1975 cells incubated for 3 days by MTT assay. The data set is classed as functional. The note with it: NCI-H1975, 72 h, time 3 day. (In general: Formazan colour is commonly taken as a measure of viable cells.)
Data set [6] deals with HGC-27. Description: Growth inhibition of human HGC-27 cells incubated for 3 days by MTT assay. The data set is classed as functional. The note with it: HGC-27, 72 h, time 3 day.
The subject of data set [7] is SK-MEL-1. Description: Growth inhibition of human SK-MEL-1 cells incubated for 3 days by MTT assay. The data set is classed as functional. The following applies: SK-MEL-1, 72 h, time 3 day.
In data set [8] the target is Serine/threonine-protein kinase B-raf (Homo sapiens, UniProt P15056). Description: Inhibition of recombinant full length human B-Raf (416 to end residues) using myelin basic protein substrate incubated for 40 mins in presence of [gamma-33ATP] by scintillation counting based radiometry assay.
Chain of Serine/threonine-protein kinase B-raf (P15056 whole entry, the tested form may be a part, canonical isoform): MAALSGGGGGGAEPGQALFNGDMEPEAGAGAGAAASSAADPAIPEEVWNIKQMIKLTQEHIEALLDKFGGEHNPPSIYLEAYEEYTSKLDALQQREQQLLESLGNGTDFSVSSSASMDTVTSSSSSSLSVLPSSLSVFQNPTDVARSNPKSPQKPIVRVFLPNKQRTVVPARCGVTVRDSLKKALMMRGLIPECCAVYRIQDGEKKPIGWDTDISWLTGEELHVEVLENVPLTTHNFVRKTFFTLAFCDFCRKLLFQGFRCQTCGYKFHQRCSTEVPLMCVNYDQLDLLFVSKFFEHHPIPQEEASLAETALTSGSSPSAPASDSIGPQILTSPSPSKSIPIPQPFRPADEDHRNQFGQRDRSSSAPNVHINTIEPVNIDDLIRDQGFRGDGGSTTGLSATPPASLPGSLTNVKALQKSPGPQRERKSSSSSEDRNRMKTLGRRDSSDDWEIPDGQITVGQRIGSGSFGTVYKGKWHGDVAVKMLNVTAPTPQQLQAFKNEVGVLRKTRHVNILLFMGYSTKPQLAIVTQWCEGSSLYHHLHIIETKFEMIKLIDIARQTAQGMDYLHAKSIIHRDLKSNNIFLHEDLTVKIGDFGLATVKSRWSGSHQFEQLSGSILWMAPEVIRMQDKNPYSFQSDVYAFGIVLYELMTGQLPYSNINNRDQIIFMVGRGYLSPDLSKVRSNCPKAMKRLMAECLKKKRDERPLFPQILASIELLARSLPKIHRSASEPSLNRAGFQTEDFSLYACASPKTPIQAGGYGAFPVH
Data set [9] concerns the target Casein kinase I isoform delta (Homo sapiens, UniProt P48730). In words: Inhibition of recombinant human CK1delta (1 to 294 residues) using KRRRALS(p)VASLPGL as substrate incubated for 40 mins in presence of [gamma-33ATP] by scintillation counting based radiometry assay.
The target in data set [10] is Ephrin type-B receptor 1 (Homo sapiens, UniProt P54762). Description: Inhibition of recombinant human EphB1 (564 to end residues) using KVEKIGEGTYGVVYK as substrate incubated for 40 mins in presence of [gamma-33ATP] by scintillation counting based radiometry assay.
Chain of Ephrin type-B receptor 1 (P54762 whole entry): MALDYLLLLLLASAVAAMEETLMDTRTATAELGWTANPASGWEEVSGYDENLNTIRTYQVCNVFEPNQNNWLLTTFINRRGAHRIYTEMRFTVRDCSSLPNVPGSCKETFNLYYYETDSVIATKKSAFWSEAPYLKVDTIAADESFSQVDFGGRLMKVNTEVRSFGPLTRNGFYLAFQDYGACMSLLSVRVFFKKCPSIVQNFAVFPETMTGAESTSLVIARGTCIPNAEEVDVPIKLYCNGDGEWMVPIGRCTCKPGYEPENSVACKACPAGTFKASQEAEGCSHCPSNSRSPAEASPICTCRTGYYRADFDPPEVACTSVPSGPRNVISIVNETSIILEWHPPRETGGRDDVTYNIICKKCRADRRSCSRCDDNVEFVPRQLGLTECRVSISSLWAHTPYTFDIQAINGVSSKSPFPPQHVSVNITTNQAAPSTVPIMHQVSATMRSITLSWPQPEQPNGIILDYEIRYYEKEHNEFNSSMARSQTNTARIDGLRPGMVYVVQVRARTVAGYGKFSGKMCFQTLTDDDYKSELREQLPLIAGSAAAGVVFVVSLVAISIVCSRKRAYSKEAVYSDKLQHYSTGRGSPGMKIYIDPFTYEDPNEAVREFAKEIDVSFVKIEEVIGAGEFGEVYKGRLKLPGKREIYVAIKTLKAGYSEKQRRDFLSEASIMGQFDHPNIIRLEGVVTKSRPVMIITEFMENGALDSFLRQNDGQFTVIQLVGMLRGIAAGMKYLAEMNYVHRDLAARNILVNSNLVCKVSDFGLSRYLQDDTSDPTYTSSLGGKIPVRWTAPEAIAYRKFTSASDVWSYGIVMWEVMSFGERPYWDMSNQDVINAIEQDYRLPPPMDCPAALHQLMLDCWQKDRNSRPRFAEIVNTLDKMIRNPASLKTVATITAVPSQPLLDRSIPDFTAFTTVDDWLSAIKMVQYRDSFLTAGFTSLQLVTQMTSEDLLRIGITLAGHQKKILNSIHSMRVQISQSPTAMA
The target of data set [11] is Platelet-derived growth factor receptor beta (Homo sapiens, UniProt P09619). Description: Inhibition of human PDGFRbeta (557 to end residues) using poly(Glu, Tyr) 4:1 as substrate measured after 40 mins in presence of [gamma33P]ATP by scintillation counting based radiometry assay.
For data set [12], the target named is Mitogen-activated protein kinase 11 (Homo sapiens, UniProt Q15759). Description: Inhibition of recombinant human full length SAPK2b using myelin basic protein as substrate incubated for 40 mins in presence of [gamma33P]ATP by scintillation counting based radiometry assay.
Chain of Mitogen-activated protein kinase 11 (Q15759 whole entry): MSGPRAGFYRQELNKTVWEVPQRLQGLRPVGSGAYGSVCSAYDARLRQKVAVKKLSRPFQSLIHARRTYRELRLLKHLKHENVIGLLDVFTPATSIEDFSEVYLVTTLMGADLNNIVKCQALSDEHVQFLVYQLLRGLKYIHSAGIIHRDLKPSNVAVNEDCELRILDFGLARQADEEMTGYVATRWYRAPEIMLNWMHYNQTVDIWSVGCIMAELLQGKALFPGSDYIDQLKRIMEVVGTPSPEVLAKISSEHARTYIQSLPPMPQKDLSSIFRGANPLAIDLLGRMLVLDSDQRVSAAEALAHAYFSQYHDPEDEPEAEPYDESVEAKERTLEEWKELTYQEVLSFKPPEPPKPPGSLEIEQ
For data set [13], the target named is Tyrosine-protein kinase Blk (Homo sapiens, UniProt P51451). In words: Inhibition of recombinant full length human BLK using poly(Glu, Tyr) 4:1 as substrate incubated for 40 mins in presence of [gamma-33ATP] by scintillation counting based radiometry assay.
Chain of Tyrosine-protein kinase Blk (P51451 whole entry): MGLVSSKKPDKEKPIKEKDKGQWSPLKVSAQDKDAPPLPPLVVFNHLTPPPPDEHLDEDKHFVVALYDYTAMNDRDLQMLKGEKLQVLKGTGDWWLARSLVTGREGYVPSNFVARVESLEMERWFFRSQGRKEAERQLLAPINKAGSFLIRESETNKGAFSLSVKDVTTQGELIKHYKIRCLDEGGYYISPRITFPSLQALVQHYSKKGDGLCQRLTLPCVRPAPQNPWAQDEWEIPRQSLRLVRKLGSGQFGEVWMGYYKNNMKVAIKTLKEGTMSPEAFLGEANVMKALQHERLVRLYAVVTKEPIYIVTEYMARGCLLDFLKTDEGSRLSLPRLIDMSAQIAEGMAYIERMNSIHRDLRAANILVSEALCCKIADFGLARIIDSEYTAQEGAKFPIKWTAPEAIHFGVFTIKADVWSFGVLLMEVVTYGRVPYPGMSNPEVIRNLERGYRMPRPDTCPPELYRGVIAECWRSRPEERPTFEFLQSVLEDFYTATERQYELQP
Data set [14] deals with Fibroblast growth factor receptor 1 (Homo sapiens, UniProt P11362).
Data set [15] addresses Receptor-type tyrosine-protein kinase FLT3 (Homo sapiens, UniProt P36888). In words: Inhibition of recombinant human FLT3 (564 to end residues) using EAIYAAPFAKKK as substrate incubated for 40 mins in presence of [gamma-33ATP] by scintillation counting based radiometry assay.
For data set [16], the target named is Tyrosine-protein kinase Lyn (Homo sapiens, UniProt P07948). Description: Inhibition of recombinant human Lyn using poly(Glu, Tyr) 4:1 as substrate after 40 mins in presence of [gamma-33ATP] by scintillation counting based radiometry assay.
Chain of Tyrosine-protein kinase Lyn (P07948 whole entry): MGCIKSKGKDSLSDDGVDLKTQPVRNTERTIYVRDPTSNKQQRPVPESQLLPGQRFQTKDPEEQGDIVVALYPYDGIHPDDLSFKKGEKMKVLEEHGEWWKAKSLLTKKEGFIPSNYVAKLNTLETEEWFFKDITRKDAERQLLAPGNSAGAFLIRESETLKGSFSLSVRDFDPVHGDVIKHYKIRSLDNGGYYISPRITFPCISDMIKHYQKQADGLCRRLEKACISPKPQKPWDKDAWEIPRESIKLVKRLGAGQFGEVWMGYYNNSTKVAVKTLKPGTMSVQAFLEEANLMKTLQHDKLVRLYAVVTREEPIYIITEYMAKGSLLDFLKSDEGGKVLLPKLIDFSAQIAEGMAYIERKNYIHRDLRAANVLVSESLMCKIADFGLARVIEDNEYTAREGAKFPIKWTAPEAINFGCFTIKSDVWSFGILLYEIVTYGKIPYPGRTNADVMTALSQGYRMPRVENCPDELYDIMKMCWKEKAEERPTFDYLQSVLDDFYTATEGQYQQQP
In data set [17] the target is Mitogen-activated protein kinase 12 (Homo sapiens, UniProt P53778). Description: Inhibition of recombinant human full length SAPK3 using myelin basic protein as substrate incubated for 40 mins in presence of [gamma33P]ATP by scintillation counting based radiometry assay.
The target in data set [18] is TRAF2 and NCK-interacting protein kinase (Homo sapiens, UniProt Q9UKE5). In words: Inhibition of human TNIK (1 to 367 residues) using RLGRDKYKTLRQIRQ as substrate incubated for 40 mins in presence of [gamma33P]ATP by scintillation counting based radiometry assay.
Chain of TRAF2 and NCK-interacting protein kinase (Q9UKE5 whole entry, the tested form may be a part): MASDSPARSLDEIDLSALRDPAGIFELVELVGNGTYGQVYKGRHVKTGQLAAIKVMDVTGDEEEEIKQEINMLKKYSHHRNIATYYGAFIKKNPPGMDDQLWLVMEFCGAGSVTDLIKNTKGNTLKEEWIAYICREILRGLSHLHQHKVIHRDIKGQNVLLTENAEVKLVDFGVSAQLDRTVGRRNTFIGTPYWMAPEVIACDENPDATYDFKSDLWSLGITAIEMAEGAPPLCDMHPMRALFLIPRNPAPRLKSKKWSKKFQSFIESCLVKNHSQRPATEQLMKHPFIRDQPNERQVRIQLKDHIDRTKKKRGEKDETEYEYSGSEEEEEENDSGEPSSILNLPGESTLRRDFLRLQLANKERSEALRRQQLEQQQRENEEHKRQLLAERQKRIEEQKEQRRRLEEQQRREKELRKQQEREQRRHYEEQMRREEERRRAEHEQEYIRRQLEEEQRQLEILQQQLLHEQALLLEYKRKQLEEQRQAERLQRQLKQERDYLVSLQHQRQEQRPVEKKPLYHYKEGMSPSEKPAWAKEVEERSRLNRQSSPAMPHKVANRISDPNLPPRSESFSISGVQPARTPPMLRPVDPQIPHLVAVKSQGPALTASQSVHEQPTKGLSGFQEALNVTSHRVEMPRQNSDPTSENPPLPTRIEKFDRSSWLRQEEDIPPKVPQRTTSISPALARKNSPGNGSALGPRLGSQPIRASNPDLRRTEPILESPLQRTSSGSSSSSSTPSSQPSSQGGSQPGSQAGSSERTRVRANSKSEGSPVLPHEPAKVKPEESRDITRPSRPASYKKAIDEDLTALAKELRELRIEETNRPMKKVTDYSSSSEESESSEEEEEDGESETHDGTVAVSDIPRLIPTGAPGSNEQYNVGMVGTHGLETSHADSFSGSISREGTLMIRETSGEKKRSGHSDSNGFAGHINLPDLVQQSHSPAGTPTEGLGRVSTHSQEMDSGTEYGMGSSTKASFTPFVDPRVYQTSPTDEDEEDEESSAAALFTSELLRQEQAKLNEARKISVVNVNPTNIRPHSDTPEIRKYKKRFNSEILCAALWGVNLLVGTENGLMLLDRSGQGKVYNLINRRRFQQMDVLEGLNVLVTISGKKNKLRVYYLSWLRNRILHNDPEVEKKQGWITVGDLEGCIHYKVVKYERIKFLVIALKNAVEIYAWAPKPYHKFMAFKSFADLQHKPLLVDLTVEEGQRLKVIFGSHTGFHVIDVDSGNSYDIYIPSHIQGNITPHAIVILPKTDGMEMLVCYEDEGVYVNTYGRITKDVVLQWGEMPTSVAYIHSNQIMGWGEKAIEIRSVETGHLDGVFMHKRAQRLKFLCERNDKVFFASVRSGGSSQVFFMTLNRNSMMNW
The species entered for data set [19] is Mus musculus. The note with it: NOD-SCID, dose 30.0 mg/kg, time 18.0 day.

Activity calls are given as the source filed them. The rule behind the calls is not given here. Some results are limits rather than exact numbers.

Chain of Casein kinase I isoform delta (P48730 whole entry, the tested form may be a part, canonical isoform): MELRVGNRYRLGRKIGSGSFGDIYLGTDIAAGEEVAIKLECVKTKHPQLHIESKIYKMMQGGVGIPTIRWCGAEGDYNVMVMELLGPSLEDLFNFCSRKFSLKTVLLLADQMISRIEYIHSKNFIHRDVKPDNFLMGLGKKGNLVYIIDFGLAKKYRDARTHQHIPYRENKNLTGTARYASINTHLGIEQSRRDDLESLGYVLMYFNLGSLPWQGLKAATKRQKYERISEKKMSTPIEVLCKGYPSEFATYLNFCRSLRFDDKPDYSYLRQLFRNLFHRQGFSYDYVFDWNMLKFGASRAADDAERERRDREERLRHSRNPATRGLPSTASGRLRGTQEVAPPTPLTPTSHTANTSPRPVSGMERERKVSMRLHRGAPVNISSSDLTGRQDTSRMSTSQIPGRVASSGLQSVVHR

As to `CC(C)(C)c1cc(NC(=O)Nc2ccc(Nc3ncnc4c3OCCCN4)cc2)no1`, the CL/F in data set [1] is 0.383 mL/min/kg. The Tmax in [2] stood at 15 min. In data set [3], the half-life is 92.3 min. For the same compound, in [4], the Activity entry is “Non-Toxic”. The 50% growth inhibitory concentration (GI50) in [5] is more than 10 µM; in [6], 5.76 µM; in [7] it was more than 10 µM. Further, the IC50 was 0.957 µM in data set [8]; 0.509 µM in data set [9]; 0.388 µM in [10]; 0.686 µM in data set [11]; 0.05 µM in [12]; 1.91 µM in data set [13]. The IC50 came to 0.868 µM in [14]; 0.013 µM in [15]; 0.122 µM in [16]; 0.199 µM in [17]; 0.221 µM in data set [18]. Further, the inhibition entry in data set [19] is “Active”.
